From patent US20200197516A1, “Antagonists of Products of the HS.459642 Unigene Cluster for the Inhibition of Proliferation, Development or Differentiation of Stem Cells Including Cancer Stem Cells” (Cavion, Inc., priority 2011, published 2020)

System: glioma stem cells (GSC)
Assay: alamarBlue assay: sensitizing glioma stem cells to Temozolomide
Assay type: cell-based
Settings: mibefradil 30 nM for 24 hrs, washed, then Temozolomide 5 μM for 24 hrs, FIG. 4
Protocol: FIG. 4. Effect of mibefradil (Mi) on sensitizing glioma stem cells (GSC) to Temozolomide (TMZ). The GSCs were seeded in 24 well plates as 50,000 cells/well overnight. They were grown in serum-free neurobasal media (Invitrogen), supplemented with human recombinant EGF and bFGF (R&D Systems) at 37° C. in 5% CO2, […]. Cells were treated with the T type calcium channel blocker mibefradil (30 nM) for 24 hrs, washed and then treated with Temozolomide (5 μM) for 24 hrs The reagent alamarBlue® (Invitrogen) was added to each well to arrive at a final concentration of 10% alamarBlue® in each well and fluorescence intensity was determined according to the manufacturers instructions. Plates were incubated for 1-2 hrs and 100 μl of supernatant was transferred to a 96 well plate for alamarBlue® reading.
FIG. 5. […]
In order to determine the effect of inhibition of a product of the Hs.459642 Unigene Cluster on cancer stem cells, the effect of two inhibitors of T-type calcium channels was studied to determine if CACNA1H inhibition sensitizes cancer cells to further anti-cancer treatment. […] Subsequent to the combination treatment, with the anti-cancer agent administered sequentially to the CACNA1H inhibitor, fluorescence intensity indicative of cell proliferation was analyzed, with greater intensity indicating increased cellular proliferation. […]

## COCC(=O)O[C@]1(CCN(C)CCCc2nc3ccccc3[nH]2)CCc2cc(F)ccc2[C@@H]1C(C)C [Mi, mibefradil]
  fluorescence intensity (alamarBlue, indicative of cell proliferation): dramatically reduced
